{
  "source": "patent US20240382480A1",
  "about": "“PHARMACEUTICAL COMPOSITION CONTAINING JAK3/JAK1/TBK1 SELECTIVE INHIBITOR AND MEDICAL USE THEREOF” (SHENZHEN CHIPSCREEN BIOSCIENCES CO., LTD., priority 2021, published 2024)",
  "assay_type_in_all_cases": "in vivo",
  "key": {"Balb/c mice": {"test_system": "Balb/c mice", "test": "DNCB-induced atopic dermatitis model in mice, oral gavage", "conditions": "50 mg/kg twice a day oral gavage, vs model group", "procedure": "Drug preparation: appropriate amount of powder of sample for test was weighed accurately and put in a sample preparation tube. Purified water was added and sonication was performed until the sample was completely dissolved, and a concentration of 5 mg/ml (based on active ingredient) was prepared, and it was administered within 15 minutes after preparation.\nExperimental animals: Balb/c mice were purchased from Sichuan Academy of Traditional Chinese Medicine, 27 mice in total.\nGrouping: Balb/c mice (27 mice in total) were randomly divided into three groups, 9 mice in each group, which were blank group, model group and administration group respectively.\nModeling: 300 μl of 1% DNCB was applied to the abdomen of mice in the model group and administration group, and 0.5% DNCB was applied to the ears every other day after 7 d, and lasted for 31 days.\nAdministration: administration was carried out after 12 days of modeling. Administration group: dosage and frequency of administration: 50 mg/kg (based on active ingredient), twice a day. Model group: the same dose of vehicle was given. The administration cycle was 3 weeks (12 d-31 d). The method of administration: oral gavage.\n• (1) General observation: ear thickness and spleen/body weight ratio. At the end point of the test, the body weight of mice was weighed, and the left and right ear thickness (mm) of mice was measured, and then the mice were subjected to gross anatomy, and the spleen of mice was weighed to calculate the spleen/body weight ratio of mice. • (2) Serum: IgE. At the end point of the test, blood was collected from the orbit of mice, and the total IgE in the serum of mice was detected (ELISA method). • (3) Histopathology: HE staining of the ear (to measure ear epidermal thickness) and toluidine blue staining (to measure the number of mast cells in the ear epidermis).\nHE staining of ears: the fixed mouse ear tissue was dehydrated by automatic dehydrator and embedded, and then sliced. After dewaxing the slices to water, hematoxylin staining was performed until blue appeared; after elution, eosin staining was performed for sealing, and finally microscopy and image acquisition were carried out.\nThe above specimens were subjected to the procedures of dehydration, trimming, embedding, slicing, staining, sealing, and other procedures, and finally microscopy and image acquisition were carried out."}, "normal animals": {"test_system": "normal animals", "test": "Spleen weight in normal animals", "conditions": "no dose or method printed"}, "[1]": {"test_system": "C57BL/6J mice with alopecia areata", "test": "Alopecia areata mouse model, oral gavage", "conditions": "80 mg/kg twice a day oral gavage for 23 d", "procedure": "Drug preparation: appropriate amount of powder of test sample was weighed accurately and put in a sample preparation tube, then add purified water was added and sonification was performed until the sample was completely dissolved. A concentration of 8 mg/ml (based on active ingredient) was prepared, and it was administered within 15 minutes after preparation.\nExperimental animals: 16 C57BL/6J mice with alopecia areata, female, 12 weeks old. They were purchased from Beijing Vital River Laboratory Animal Technology Co., Ltd. Animal inclusion criteria: mice with patchy and traceless hair loss, mainly with back hair loss and head hair loss.\nGrouping and criteria: 14 C57BL/6J mice were enrolled in the groups, and 5 mice in the model group, 9 mice in the administration group (test sample). The overall situation of hair loss in the administration group was more serious than that in the model group.\nAdministration information: administration group: single dose: 80 mg/kg (based on active ingredient) twice a day for 23 d continuously; model group: equal doses of vehicle given. Method of administration: oral gavage.\nRecord of change rate of body weight and alopecia areata area: measured twice a week, weighed and observed with naked eyes on Monday and Thursday.\nSpleen size and weight: at the end of the test, the body weight of mice was weighed, and then the mice were subjected to gross anatomy, the spleen of the mice was observed and weighed to calculate the spleen/body weight ratio of mice."}, "[2]": {"conditions": "end point, vs model group, p<0.05"}},
  "data": [
    {"smiles": "C=CC(=O)N(C)c1cc(Nc2ncc(Cl)c(NCCCNC(=O)c3ccc(C#N)cc3)n2)ccc1F", "note": "[test sample, N-(3-((5-chloro-2-((4-fluoro-3-(N-methylacrylamido)phenyl)amino)-4-pyrimidinyl)amino)propyl)-4-cyanobenzamide]", "values": [
      {"measurement": "spleen/body weight ratio", "setting": "Balb/c mice; 3 weeks (12 d-31 d), end point, # p<0.05", "value": "significantly reduced"},
      {"measurement": "ear epidermal thickness", "setting": "Balb/c mice; 3 weeks, HE staining, # p<0.05", "value": "significantly decreased"},
      {"measurement": "serum IgE level", "setting": "Balb/c mice; 3 weeks, end point, ELISA, ## p<0.01", "value": "significantly decreased"},
      {"measurement": "ear thickness (including the left ear and the right ear)", "setting": "Balb/c mice; 3 weeks, end point, # p<0.05", "value": "significantly reduced"},
      {"measurement": "number of mast cells in ear epidermis", "setting": "Balb/c mice; 3 weeks, toluidine blue staining, # p<0.05", "value": "significantly decreased"},
      {"measurement": "weight of spleen in normal animals", "setting": "normal animals", "value": "does not reduce the weight of spleen"},
      {"measurement": "spleen weight", "setting": "[1]; [2]", "value": "significantly lower"},
      {"measurement": "spleen/body weight ratio", "setting": "[1]; [2]", "value": "significantly lower"},
      {"measurement": "alopecia areata area", "setting": "[1]; better than model group (vehicle), p<0.01", "value": "significantly ameliorated"}
    ]}
  ]
}
